According to patent publication US9540325B2, “N1-cyclic amine-N5-substituted phenyl biguanide derivatives, methods of preparing the same and pharmaceutical composition comprising the same” (Immunomet Therapeutics, Inc., priority 2011, dated 2017):

How the values were obtained:
[1] = Solubility in water of hydrochloride and acetate salts; type: physicochemical; settings: room temperature
Experimental: The solubilities in water of the hydrochlorides prepared in Examples 26, 27, 32, 33, 48, 49, 53 and 54, and the solubilities in water of the acetates prepared in Examples 70 to 77, were compared.
The experimental conditions and methods are described, as follows.
1) 1 ml of distilled water is added to a container including 5 mg of salt at room temperature.
2) The resulting mixture is stirred for 10 minutes, and then kept at room temperature for 1 hour.
3) Undissolved residual salt is recovered and weighed.
4) The ratio of the amount of the recovered salt and the amount of the dissolved salt is calculated.
5) Operations 1) to 4) are repeatedly performed with increasing amount (i.e., 10, 15, 20, 25 and 30 mg) of salt.
The experimental procedures were performed for each of the hydrochlorides of Examples 26, 27, 32, 33, 48, 49, 53 and 54 and the acetates of Examples 70 to 77. The comparative solubilities obtained using the hydrochlorides of Examples 26, 27, 32, 33, 48, 49, 53 and 54 and the acetates of Examples 70 to 77 are listed in the following Table 1.

AMPKα = assay: Measurement of AMPK activation effect (AMPKα Thr172 phosphorylation immunoassay) in MCF7 cells; type: cell-based, human; settings: 24 hours; for AMPK activation effect at 10 μM (%) / AMPK activation effect at 50 μM (%): relative to untreated cells; for AMPK activation effect AC150: concentration at which AMPK activation reached 150%
Experimental: MCF7 cells derived from human breast cancer cells (commercially available from the Korean Cell Line Bank) were used, and the AMPK activation effect of the biguanide derivative was confirmed using an AMPKα immunoassay kit (Invitrogen, Catalog No. KHO0651).
MCF7 cells were cultured in a DMEM medium supplemented with 10% fetal bovine serum. Thereafter, the cultured MCF7 cells were put into a 6-well plate with approximately 5×10^5 cells per well and cultured in an incubator supplied with 5% CO2. Culture media were treated with the derivatives synthesized in the examples at contents of 5, 10 and 50 μM, and then cultured for 24 hours. Metformin hydrochloride was used as the control, and the culture media were treated with 0.05, 0.5, 1, 2, 5 and 10 mM metformin hydrochloride, and then tested in the same manner as described in the derivatives synthesized in the examples. Subsequently, the cells were lysed according to a method presented in the operation manual of the AMPKα immunoassay kit, and 20 μg of a cell lysate was then yielded through protein assay. Thereafter, the AMPK activation effect was obtained by determining the degree of phosphorylation of 172nd threonine residue (Thr172) of the AMPKα from the cell lysate according to the method presented in the operation manual of the AMPKα immunoassay kit. […] A curve graph showing AMPK activation according to the concentration of the treated compounds was plotted based on the obtained AMPKα activation results, the concentration (activation concentration 150, AC150) value of the compound whose AMPK activation reached 150% was calculated using a GraphPad Prism 5.0 program, and the degrees of AMPK activation were obtained when concentrations of the treated biguanide derivatives were 10 μM and 50 μM and the metformin hydrochloride was 50 μM

HCT116 cells = assay: Measurement of effect of inhibiting cancer cell proliferation (MTT); type: cell-based, human; settings: Homo sapiens; for inhibition at 100 µM: HCT-116, 100 μM, 48 hours, read-out: Cell Growth Inhibition (%) at 100 μM; for GI50: HCT-116, 48 h
Source text: HCT116 cells derived from human colorectal cancer (commercially available from the Korean Cell Line Bank) were used, and the effect of inhibiting cancer cell proliferation of the biguanide derivative was confirmed by measuring the concentration value (cell growth inhibition concentration, GIC50) at which cell growth was inhibited by 50% using a 3-(4,5-dimethylthiazol-2-yl)-2,5-diphenyltetrazolium bromide (MTT) reagent.
First, HCT116 cells were put on a 96-well plate and cultured in a DMEM medium containing 10% fetal bovine serum for 16 hours so that the cellcount in each well was approximately 5,000. Subsequently, to obtain the GIC50 value of each compound, culture media were treated with 100 μM, 25 μM, 6.25 μM, 1.56 μM or 0.39 μM of the compound, and then cultured for 48 hours. Metformin hydrochloride was used as the control, and the culture media were treated with 25, 12.5, 2.5, 0.5, 0.1 mM metformin hydrochloride, and then tested in the same manner as described in the derivatives synthesized in the examples. In order to determine whether the cells survived after treatment with the compounds, MTT was added to the culture media which were then cultured for another 3 hours. Formed formazane crystals were dissolved using dimethyl sulfoxide (DMSO), and the absorbance of the resulting solution was measured at 560 nm. After the 48-hour culture, […] was indicated as cell viability (%) according to each treated concentration. A cell viability curve graph was plotted and the concentration (GIC50) value of the compound at which the growth was inhibited by 50% was calculated to confirm the inhibition effect of cancer cell proliferation. Also, the cell growth viability (%) when the concentration of the treated biguanide derivative and the metformin hydrochloride as the control were 100 μM was shown.

[2] = content 5 mg/1 ml distilled water
[3] = content 10 mg/1 ml distilled water

Structure (SMILES): N=C(NC(=N)N1CCCCC1)Nc1ccc(OC(F)(F)F)c(F)c1 [Example 77, N1-piperidine-N5-(3-fluoro-4-trifluoromethoxy)phenyl biguanide acetate]
- Solubility in water (%), acetate salt [1, 2]: 100%
- Solubility in water (%), acetate salt [1, 3]: 50%

Structure (SMILES): N=C(NC(=N)N1CCCCC1)Nc1ccc(OC(F)(F)F)cc1 [Example 73, N1-piperidine-N5-(4-trifluoromethoxy)phenyl biguanide acetate]
- Solubility in water (%), acetate salt [1, 2]: 100%
- Solubility in water (%), acetate salt [1, 3]: 100%
- Solubility in water (%), acetate salt ([1]; content 15 mg/1 ml distilled water): 100%
- Solubility in water (%), acetate salt ([1]; content 20 mg/1 ml distilled water): 20%
- AMPK activation effect at 10 μM (%) (AMPKα): 270%
- AMPK activation effect at 50 μM (%) (AMPKα): 747%
- AMPK activation effect AC150 (AMPKα): 0.3 µM

Structure (SMILES): Cl.N=C(NC(=N)N1CCCCC1)Nc1cc(Cl)cc(Cl)c1 [Example 61, N1-piperidine-N5-(3,5-dichloro)phenyl biguanide hydrochloride]
- AMPK activation effect at 10 μM (%) (AMPKα): 239%
- AMPK activation effect AC150 (AMPKα): 3.3 µM
- inhibition at 100 µM (HCT116 cells): 97.7%
- GI50 (HCT116 cells): 7.1 µM
- melting point: 230 to 231 °C

Structure (SMILES): Cl.N=C(NC(=N)N1CCCCC1)Nc1cccc(N)c1 [Example 36, N1-piperidine-N5-(3-amino)phenyl biguanide hydrochloride]
- AMPK activation effect at 10 μM (%) (AMPKα): 62%
- AMPK activation effect at 50 μM (%) (AMPKα): 175%
- AMPK activation effect AC150 (AMPKα): 36.8 µM
- inhibition at 100 µM (HCT116 cells): 43.6%
- GI50 (HCT116 cells): > 100 µM
- melting point: 220 to 222 °C

Structure (SMILES): Cl.N=C(NC(=N)N1CCCC1)Nc1ccc(Cl)cc1 [Example 17, N1-pyrrolidine-N5-(4-chloro)phenyl biguanide hydrochloride]
- AMPK activation effect at 10 μM (%) (AMPKα): 167%
- AMPK activation effect at 50 μM (%) (AMPKα): 512%
- AMPK activation effect AC150 (AMPKα): 8.4 µM
- inhibition at 100 µM (HCT116 cells): 97.4%
- GI50 (HCT116 cells): 48.2 µM
- melting point: 260 to 261 °C

Structure (SMILES): Cl.N=C(NC(=N)N1CCCCC1)Nc1ccc(F)cc1F [Example 58, N1-piperidine-N5-(2,4-difluoro)phenyl biguanide hydrochloride]
- AMPK activation effect at 10 μM (%) (AMPKα): 131%
- AMPK activation effect at 50 μM (%) (AMPKα): 265%
- AMPK activation effect AC150 (AMPKα): 16.5 µM
- inhibition at 100 µM (HCT116 cells): 37.4%
- GI50 (HCT116 cells): > 100 µM
- melting point: 256 to 257 °C

Structure (SMILES): CC(=O)Nc1cccc(NC(=N)NC(=N)N2CCCCC2)c1.Cl [Example 39, N1-piperidine-N5-(3-acetamide)phenyl biguanide hydrochloride]
- AMPK activation effect at 10 μM (%) (AMPKα): 100%
- AMPK activation effect at 50 μM (%) (AMPKα): 145%
- AMPK activation effect AC150 (AMPKα): >50 µM
- inhibition at 100 µM (HCT116 cells): 25.5%
- GI50 (HCT116 cells): > 100 µM
- melting point: 265 to 267 °C

Structure (SMILES): Cl.N=C(NC(=N)N1CCC1)Nc1ccc(OC(F)(F)F)cc1 [Example 31, N1-azetidine-N5-(4-trifluoromethoxy)phenyl biguanide hydrochloride]
- AMPK activation effect at 10 μM (%) (AMPKα): 145%
- AMPK activation effect at 50 μM (%) (AMPKα): 232%
- AMPK activation effect AC150 (AMPKα): 15.3 µM
- inhibition at 100 µM (HCT116 cells): 96.5%
- GI50 (HCT116 cells): 22.9 µM
- melting point: 257 to 259 °C

Structure (SMILES): Cl.N=C(NC(=N)N1CCCCC1)Nc1ccc(F)c(F)c1 [Example 59, N1-piperidine-N5-(3,4-difluoro)phenyl biguanide hydrochloride]
- AMPK activation effect at 10 μM (%) (AMPKα): 269%
- AMPK activation effect at 50 μM (%) (AMPKα): 1036%
- AMPK activation effect AC150 (AMPKα): 3.6 µM
- inhibition at 100 µM (HCT116 cells): 97.8%
- GI50 (HCT116 cells): 28.1 µM
- melting point: 257 to 258 °C

Structure (SMILES): Cl.N=C(NC(=N)N1CCCCC1)Nc1cc(F)cc(F)c1 [Example 60, N1-piperidine-N5-(3,5-difluoro)phenyl biguanide hydrochloride]
- AMPK activation effect at 10 μM (%) (AMPKα): 144%
- AMPK activation effect at 50 μM (%) (AMPKα): 576%
- AMPK activation effect AC150 (AMPKα): 8.2 µM
- inhibition at 100 µM (HCT116 cells): 97.6%
- GI50 (HCT116 cells): 48.2 µM
- melting point: 243 to 244 °C

Structure (SMILES): Cl.N=C(NC(=N)N1CCCCC1)Nc1ccc(Cl)c(C(F)(F)F)c1 [Example 47, N1-piperidine-N5-(4-chloro-3-trifluoromethyl)phenyl biguanide hydrochloride]
- AMPK activation effect at 10 μM (%) (AMPKα): 169%
- AMPK activation effect AC150 (AMPKα): 7.3 µM
- inhibition at 100 µM (HCT116 cells): 96.7%
- GI50 (HCT116 cells): 1.9 µM
- melting point: 269 to 270 °C

Structure (SMILES): Cc1cccc(NC(=N)NC(=N)N2CCCCC2)c1.Cl [Example 9, N1-piperidine-N5-(3-methyl)phenyl biguanide hydrochloride]
- AMPK activation effect at 10 μM (%) (AMPKα): 149%
- AMPK activation effect at 50 μM (%) (AMPKα): 255%
- AMPK activation effect AC150 (AMPKα): 12.4 µM
- inhibition at 100 µM (HCT116 cells): 79.1%
- GI50 (HCT116 cells): 13.4 µM
- melting point: 239 to 240 °C

Structure (SMILES): Cl.N=C(NC(=N)N1CCOCC1)Nc1cccc(Br)c1 [Example 22, N1-morpholine-N5-(3-bromo)phenyl biguanide hydrochloride]
- AMPK activation effect at 10 μM (%) (AMPKα): 127%
- AMPK activation effect at 50 μM (%) (AMPKα): 119%
- AMPK activation effect AC150 (AMPKα): 2.3 µM
- inhibition at 100 µM (HCT116 cells): 44.5%
- GI50 (HCT116 cells): > 100 µM
- melting point: 264 to 265 °C

Structure (SMILES): Cl.N=C(NC(=N)N1CCCCC1)Nc1cc(Br)cc(OC(F)(F)F)c1 [Example 67, N1-piperidine-N5-(3-bromo-5-trifluoromethoxy)phenyl biguanide hydrochloride]
- AMPK activation effect AC150 (AMPKα): 5.0 µM
- inhibition at 100 µM (HCT116 cells): 97.1%
- GI50 (HCT116 cells): 2.9 µM
- melting point: 205 to 207 °C

Structure (SMILES): CC(=O)Nc1ccc(NC(=N)NC(=N)N2CCCCC2)cc1.Cl [Example 38, N1-piperidine-N5-(4-acetamide)phenyl biguanide hydrochloride]
- AMPK activation effect at 10 μM (%) (AMPKα): 94%
- AMPK activation effect at 50 μM (%) (AMPKα): 144%
- AMPK activation effect AC150 (AMPKα): >50 µM
- inhibition at 100 µM (HCT116 cells): 0%
- GI50 (HCT116 cells): > 100 µM
- melting point: 258 to 260 °C

Structure (SMILES): COc1cc(NC(=N)NC(=N)N2CCCCC2)cc(OC)c1.Cl [Example 45, N1-piperidine-N5-(3,5-dimethoxy)phenyl biguanide hydrochloride]
- AMPK activation effect at 10 μM (%) (AMPKα): 232%
- AMPK activation effect at 50 μM (%) (AMPKα): 249%
- AMPK activation effect AC150 (AMPKα): 2.7 µM
- inhibition at 100 µM (HCT116 cells): 41.3%
- GI50 (HCT116 cells): > 100 µM
- melting point: 234 to 236 °C

Structure (SMILES): Cl.N=C(NC(=N)N1CCCCC1)Nc1ccc(Cl)c(OC(F)(F)F)c1 [Example 51, N1-piperidine-N5-(4-chloro-3-trifluoromethoxy)phenyl biguanide hydrochloride]
- AMPK activation effect at 10 μM (%) (AMPKα): 160%
- AMPK activation effect AC150 (AMPKα): 7.8 µM
- inhibition at 100 µM (HCT116 cells): 96.3%
- GI50 (HCT116 cells): 1.9 µM
- melting point: 251 to 252 °C

Structure (SMILES): Cl.N=C(NC(=N)N1CCCCC1)Nc1ccccc1 [Example 8, N1-piperidine-N5-phenyl biguanide hydrochloride]
- AMPK activation effect at 50 μM (%) (AMPKα): 347%
- AMPK activation effect AC150 (AMPKα): 10.1 µM
- inhibition at 100 µM (HCT116 cells): 77.6%
- GI50 (HCT116 cells): 56.8 µM
- melting point: 204 to 206 °C
